# Reference: PMC3246389 (Nature biotechnology, 2011)
# Tests used:
# GABAB receptor = GABAB receptor (Homo sapiens, UniProt Q9UBS5); format: binding, rat and human; details: control ligand tested at the highest concentration
# [1] = read-out: Kd, literature value; SPR on immobilized GM1; cited from earlier work
# Sequence of GABAB receptor (Q9UBS5 1-844 isoform Q9UBS5-2): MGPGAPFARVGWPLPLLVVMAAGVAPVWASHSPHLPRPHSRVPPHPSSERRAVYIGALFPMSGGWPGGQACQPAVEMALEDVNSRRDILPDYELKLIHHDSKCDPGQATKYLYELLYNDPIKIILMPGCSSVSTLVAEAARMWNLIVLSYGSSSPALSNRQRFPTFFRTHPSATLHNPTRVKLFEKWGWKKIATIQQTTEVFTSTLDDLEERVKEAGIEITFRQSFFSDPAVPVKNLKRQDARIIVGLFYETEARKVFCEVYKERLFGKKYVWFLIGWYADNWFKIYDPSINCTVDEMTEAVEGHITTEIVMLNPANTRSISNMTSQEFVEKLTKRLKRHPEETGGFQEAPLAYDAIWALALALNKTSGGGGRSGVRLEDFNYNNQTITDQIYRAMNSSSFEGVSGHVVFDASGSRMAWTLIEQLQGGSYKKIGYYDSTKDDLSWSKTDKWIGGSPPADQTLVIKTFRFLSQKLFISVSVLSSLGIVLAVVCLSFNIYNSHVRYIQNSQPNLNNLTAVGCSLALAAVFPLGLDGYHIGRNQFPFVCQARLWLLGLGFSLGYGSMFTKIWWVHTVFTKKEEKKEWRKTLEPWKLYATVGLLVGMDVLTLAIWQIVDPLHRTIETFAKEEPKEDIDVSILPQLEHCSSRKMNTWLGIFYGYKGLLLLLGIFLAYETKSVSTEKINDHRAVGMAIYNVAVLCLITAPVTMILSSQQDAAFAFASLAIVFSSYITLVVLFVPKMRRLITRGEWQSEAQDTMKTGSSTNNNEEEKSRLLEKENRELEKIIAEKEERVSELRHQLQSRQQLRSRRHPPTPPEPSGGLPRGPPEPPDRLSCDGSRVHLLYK
# Sequence of GABAB receptor (O88871 41-940 partner): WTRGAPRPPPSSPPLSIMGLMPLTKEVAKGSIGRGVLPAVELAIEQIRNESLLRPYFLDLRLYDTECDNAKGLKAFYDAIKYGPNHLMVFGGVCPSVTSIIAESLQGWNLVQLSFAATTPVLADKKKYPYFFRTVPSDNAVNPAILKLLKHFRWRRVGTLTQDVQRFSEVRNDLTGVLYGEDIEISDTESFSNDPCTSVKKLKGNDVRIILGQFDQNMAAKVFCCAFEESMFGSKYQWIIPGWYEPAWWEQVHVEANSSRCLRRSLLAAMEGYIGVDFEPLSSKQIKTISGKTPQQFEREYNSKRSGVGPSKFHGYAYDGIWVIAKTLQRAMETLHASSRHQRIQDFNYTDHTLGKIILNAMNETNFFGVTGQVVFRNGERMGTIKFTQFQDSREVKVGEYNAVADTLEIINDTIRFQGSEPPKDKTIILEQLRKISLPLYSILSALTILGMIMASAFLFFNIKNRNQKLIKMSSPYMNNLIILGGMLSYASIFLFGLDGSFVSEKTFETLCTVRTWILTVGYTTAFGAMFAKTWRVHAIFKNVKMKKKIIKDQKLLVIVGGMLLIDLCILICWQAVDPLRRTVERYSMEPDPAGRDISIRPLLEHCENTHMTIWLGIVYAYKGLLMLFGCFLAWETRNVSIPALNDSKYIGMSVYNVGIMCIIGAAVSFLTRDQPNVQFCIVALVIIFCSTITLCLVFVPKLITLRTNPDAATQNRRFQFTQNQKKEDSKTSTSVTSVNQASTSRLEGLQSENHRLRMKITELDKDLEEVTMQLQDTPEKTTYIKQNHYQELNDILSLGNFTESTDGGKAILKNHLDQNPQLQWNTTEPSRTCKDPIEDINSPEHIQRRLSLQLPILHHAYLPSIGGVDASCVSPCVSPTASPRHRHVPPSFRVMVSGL
Compound,BSI binding curve (negative control) (GABAB receptor),Kd [1] [pM]
C[C@H](N)C(=O)O [L-alanine],negative control,–
CC(C)CCC[C@@H](C)[C@H]1CC[C@H]2[C@@H]3CC=C4C[C@@H](O)CC[C@]4(C)[C@H]3CC[C@]12C [cholesterol],negative control,–
"Cholera toxin B subunit: cholera toxin B subunit, soluble protein that binds GM1; purchased from Sigma",–,4
